Measured values: paper PMC6804253, “Predicting and Experimentally Validating Hot-Spot Residues at Protein–Protein Interfaces” (ACS Chemical Biology, 2019)
Like-named read-outs stand apart in the source and are kept apart here.

Tests used:
[1] = test system: PPIs of the SKEMPI data set (by PDBID); conditions: ref SKEMPI, cited from earlier work; for sk_ddG_kJ: SKEMPI experimental ΔΔG of binding; for sk_ddG_kJ / sk_ddG_kJ (SKEMPI experimental ΔΔG, mutation to alanine) / sk_ddG_kJ (SKEMPI experimental ΔΔG): single mutation to alanine; for sk_class (class of SKEMPI experimental ΔΔG): class by ΔΔG threshold 4.184 kJ/mol; for sk_ddG_kJ (SKEMPI experimental ΔΔG, mutation to alanine): residue group in r_group; for sk_class: class of the SKEMPI experimental ΔΔG
[2] = test system: PPIs of the SKEMPI data set (by PDBID); test: SKEMPI experimental ΔΔG, single mutations to alanine; type: binding; conditions: class of the SKEMPI experimental ΔΔG; ref SKEMPI
[3] = complex given by PDBID, residue group SQNT
[4] = sheet sortedByGroup, r_group FAMILYVW

Row | Molecule | sk_ddG_kJ ([1]; PPI given by PDBID) [kJ] | sk_class [1] | further results
1 | 1A4Y EB108A | – | – | sk_ddG_kJ ([1]; complex by PDBID): -1.34 kJ; sk_class [2]: Neutral (neutral (little effect) 4.184 kJ/mol < ΔΔG > −4.184 kJ/mol)
2 | 1A22 PA48A | – | – | sk_class (class of SKEMPI experimental ΔΔG) [1]: Neutral (neutral (little effect) 4.184 kJ/mol < ΔΔG > −4.184 kJ/mol); sk_ddG_kJ (SKEMPI experimental ΔΔG, mutation to alanine) ([1]; complex given by PDBID): 1.67 kJ
3 | 1A22 PA59A | – | – | sk_class (class of SKEMPI experimental ΔΔG) [1]: Neutral (neutral (little effect) 4.184 kJ/mol < ΔΔG > −4.184 kJ/mol); sk_ddG_kJ (SKEMPI experimental ΔΔG, mutation to alanine) ([1]; complex given by PDBID): 1.59 kJ
4 | 1A22 PA61A | – | – | sk_class (class of SKEMPI experimental ΔΔG) [1]: Positive (positive (a hot residue) ΔΔG ≥ 4.184 kJ/mol); sk_ddG_kJ (SKEMPI experimental ΔΔG, mutation to alanine) ([1]; complex given by PDBID): 5.02 kJ
5 | 1DQJ DC101A | – | – | sk_ddG_kJ ([1]; complex by PDBID): 6.07 kJ
6 | 1DQJ KC96A | – | – | sk_ddG_kJ ([1]; complex by PDBID): 25.77 kJ
7 | 1DQJ KC97A | – | – | sk_ddG_kJ ([1]; complex by PDBID): 14.73 kJ
8 | 1DQJ LC75A | – | – | sk_ddG_kJ (SKEMPI experimental ΔΔG) ([1]; PPI given by PDBID, sheet sortedByGroup, r_group FAMILYVW): 6.07 kJ
9 | 1DQJ RC21A | – | – | sk_ddG_kJ ([1]; complex by PDBID): 4.90 kJ
10 | 1DQJ SC100A | – | – | sk_ddG_kJ (SKEMPI experimental ΔΔG) [1, 3]: 3.26 kJ
11 | 1DQJ TC89A | – | – | sk_ddG_kJ (SKEMPI experimental ΔΔG) [1, 3]: 3.51 kJ
12 | 1DQJ WC62A | – | – | sk_ddG_kJ (SKEMPI experimental ΔΔG) [1, 4]: 3.18 kJ
13 | 1DQJ WC63A | – | – | sk_ddG_kJ (SKEMPI experimental ΔΔG) [1, 4]: 5.65 kJ
14 | 1DQJ YC20A | – | – | sk_ddG_kJ (SKEMPI experimental ΔΔG) [1, 4]: 13.77 kJ
15 | 1GC1 NC30A | 0.71 | Neutral (neutral (little effect) 4.184 kJ/mol < ΔΔG > −4.184 kJ/mol) | –
16 | 1GC1 NC32A | 0.75 | Neutral (neutral (little effect) 4.184 kJ/mol < ΔΔG > −4.184 kJ/mol) | –
17 | 1GC1 NC73A | -0.46 | Neutral (neutral (little effect) 4.184 kJ/mol < ΔΔG > −4.184 kJ/mol) | –
18 | 1GC1 QC20A | -0.08 | Neutral (neutral (little effect) 4.184 kJ/mol < ΔΔG > −4.184 kJ/mol) | –
19 | 1GC1 QC33A | 0.46 | Neutral (neutral (little effect) 4.184 kJ/mol < ΔΔG > −4.184 kJ/mol) | –
20 | 1GC1 QC40A | -1.72 | Neutral (neutral (little effect) 4.184 kJ/mol < ΔΔG > −4.184 kJ/mol) | –
21 | 1GC1 QC64A | 1.84 | Neutral (neutral (little effect) 4.184 kJ/mol < ΔΔG > −4.184 kJ/mol) | –
22 | 1GC1 QC94A | -0.46 | Neutral (neutral (little effect) 4.184 kJ/mol < ΔΔG > −4.184 kJ/mol) | –

Row | Molecule | sk_ddG_kJ ([1]; PPI given by PDBID) [kJ] | sk_class [1] | further results
23 | 1GC1 SC23A | 1.21 | Neutral (neutral (little effect) 4.184 kJ/mol < ΔΔG > −4.184 kJ/mol) | –
24 | 1GC1 SC31A | 0.46 | Neutral (neutral (little effect) 4.184 kJ/mol < ΔΔG > −4.184 kJ/mol) | –
25 | 1GC1 SC60A | -0.38 | Neutral (neutral (little effect) 4.184 kJ/mol < ΔΔG > −4.184 kJ/mol) | –
26 | 1GC1 TC15A | 1.34 | Neutral (neutral (little effect) 4.184 kJ/mol < ΔΔG > −4.184 kJ/mol) | –
27 | 1GC1 TC17A | -0.54 | Neutral (neutral (little effect) 4.184 kJ/mol < ΔΔG > −4.184 kJ/mol) | –
28 | 1VFB IC124A | – | – | sk_class (class of SKEMPI experimental ΔΔG) [1]: Positive (positive (a hot residue) ΔΔG ≥ 4.184 kJ/mol)
29 | 1VFB LC129A | – | – | sk_class (class of SKEMPI experimental ΔΔG) [1]: Neutral (neutral (little effect) 4.184 kJ/mol < ΔΔG > −4.184 kJ/mol)
30 | 1VFB SC24A | 3.56 | Neutral (neutral (little effect) 4.184 kJ/mol < ΔΔG > −4.184 kJ/mol) | –
31 | 1VFB VC120A | – | – | sk_class (class of SKEMPI experimental ΔΔG) [1]: Neutral (neutral (little effect) 4.184 kJ/mol < ΔΔG > −4.184 kJ/mol)
32 | 1VFB YC23A | – | – | sk_class (class of SKEMPI experimental ΔΔG) [1]: Neutral (neutral (little effect) 4.184 kJ/mol < ΔΔG > −4.184 kJ/mol)
33 | 1JRH NI48A (protein, UniProt P15260 18-245, looked up, variant N48A, extracellular domain) extracellular domain: EMGTADLGPSSVPTPTNVTIESYNMNPIVYWEYQIMPQVPVFTVEVKAYGVKNSEWIDACINISHHYCNISDHVGDPSNSLWVRVKARVGQKESAYAKSEEFAVCRDGKIGPPKLDIRKEEKQIMIDIFHPSVFVNGDEQEVDYDPETTCYIRVYNVYVRMNGSEIQYKILTQKEDDCDEIQCQLAIPVSSLNSQYCVSAEGVLHVWGVTTEKSKEVCITIFNSSIKG | 2.64 | Neutral (neutral (little effect) 4.184 kJ/mol < ΔΔG > −4.184 kJ/mol) | –
34 | 1JRH NI53A (protein, UniProt P15260 18-245, looked up, variant N53A, extracellular domain) extracellular domain: EMGTADLGPSSVPTPTNVTIESYNMNPIVYWEYQIMPQVPVFTVEVKNYGVKASEWIDACINISHHYCNISDHVGDPSNSLWVRVKARVGQKESAYAKSEEFAVCRDGKIGPPKLDIRKEEKQIMIDIFHPSVFVNGDEQEVDYDPETTCYIRVYNVYVRMNGSEIQYKILTQKEDDCDEIQCQLAIPVSSLNSQYCVSAEGVLHVWGVTTEKSKEVCITIFNSSIKG | 19.71 | Positive (positive (a hot residue) ΔΔG ≥ 4.184 kJ/mol) | –
35 | 1JRH SI54A (protein, UniProt P15260 18-245, looked up, variant S54A, extracellular domain) extracellular domain: EMGTADLGPSSVPTPTNVTIESYNMNPIVYWEYQIMPQVPVFTVEVKNYGVKNAEWIDACINISHHYCNISDHVGDPSNSLWVRVKARVGQKESAYAKSEEFAVCRDGKIGPPKLDIRKEEKQIMIDIFHPSVFVNGDEQEVDYDPETTCYIRVYNVYVRMNGSEIQYKILTQKEDDCDEIQCQLAIPVSSLNSQYCVSAEGVLHVWGVTTEKSKEVCITIFNSSIKG | 1.92 | Neutral (neutral (little effect) 4.184 kJ/mol < ΔΔG > −4.184 kJ/mol) | –
36 | 2PCC VA197A (protein, UniProt P00431 68-361, looked up, variant V197A) Cytochrome c peroxidase, …: TTPLVHVASVEKGRSYEDFQKVYNAIALKLREDDEYDNYIGYGPVLVRLAWHTSGTWDKHDNTGGSYGGTYRFKKEFNDPSNAGLQNGFKFLEPIHKEFPWISSGDLFSLGGVTAVQEMQGPKIPWRCGRVDTPEDTTPDNGRLPDADKDADYVRTFFQRLNMNDREVVALMGAHALGKTHLKNSGYEGPWGAANNAFTNEFYLNLLNEDWKLEKNDANNEQWDSKSGYMMLPTDYSLIQDPKYLSIVKEYANDQDKFFKDFSKAFEKLLENGITFPKDAPSPFIFKTLEEQGL | – | – | sk_class (class of SKEMPI experimental ΔΔG) [1]: Positive (positive (a hot residue) ΔΔG ≥ 4.184 kJ/mol); sk_ddG_kJ (SKEMPI experimental ΔΔG, mutation to alanine) ([1]; complex given by PDBID): 8.74 kJ
37 | 1KTZ IB125A (protein, UniProt P37173 23-166, looked up, variant I125A, extracellular domain) extracellular domain: TIPPHVQKSVNNDMIVTDNNGAVKFPQLCKFCDVRFSTCDNQKSCMSNCSITSICEKPQEVCVAVWRKNDENITLETVCHDPKLPYHDFILEDAASPKCIMKEKKKPGETFFMCSCSSDECNDNAIFSEEYNTSNPDLLLVIFQ | – | – | sk_class (class of SKEMPI experimental ΔΔG) [1]: Neutral (neutral (little effect) 4.184 kJ/mol < ΔΔG > −4.184 kJ/mol); sk_ddG_kJ (SKEMPI experimental ΔΔG, mutation to alanine) ([1]; complex given by PDBID): 2.26 kJ
38 | 1IAR TA6A (protein, UniProt P05112 25-153, looked up, variant T6A) Interleukin-4: HKCDIALQEIIKTLNSLTEQKTLCTELTVTDIFAASKNTTEKETFCRAATVLRQFYSHHEKDTRCLGATAQQFHRHKQLIRFLKRLDRNLWGLAGLNSCPVKEANQSTLENFLERLKTIMREKYSKCSS | -0.42 | Neutral (neutral (little effect) 4.184 kJ/mol < ΔΔG > −4.184 kJ/mol) | –
39 | 1IAR NA15A (protein, UniProt P05112 25-153, looked up, variant N15A) Interleukin-4: HKCDITLQEIIKTLASLTEQKTLCTELTVTDIFAASKNTTEKETFCRAATVLRQFYSHHEKDTRCLGATAQQFHRHKQLIRFLKRLDRNLWGLAGLNSCPVKEANQSTLENFLERLKTIMREKYSKCSS | -0.13 | Neutral (neutral (little effect) 4.184 kJ/mol < ΔΔG > −4.184 kJ/mol) | –
40 | 1IAR NA89A (protein, UniProt P05112 25-153, looked up, variant N89A) Interleukin-4: HKCDITLQEIIKTLNSLTEQKTLCTELTVTDIFAASKNTTEKETFCRAATVLRQFYSHHEKDTRCLGATAQQFHRHKQLIRFLKRLDRALWGLAGLNSCPVKEANQSTLENFLERLKTIMREKYSKCSS | 6.53 | Positive (positive (a hot residue) ΔΔG ≥ 4.184 kJ/mol) | –
41 | 1IAR TA13A (protein, UniProt P05112 25-153, looked up, variant T13A) Interleukin-4: HKCDITLQEIIKALNSLTEQKTLCTELTVTDIFAASKNTTEKETFCRAATVLRQFYSHHEKDTRCLGATAQQFHRHKQLIRFLKRLDRNLWGLAGLNSCPVKEANQSTLENFLERLKTIMREKYSKCSS | 4.10 | Neutral (neutral (little effect) 4.184 kJ/mol < ΔΔG > −4.184 kJ/mol) | –
42 | 1IAR QA8A (protein, UniProt P05112 25-153, looked up, variant Q8A) Interleukin-4: HKCDITLAEIIKTLNSLTEQKTLCTELTVTDIFAASKNTTEKETFCRAATVLRQFYSHHEKDTRCLGATAQQFHRHKQLIRFLKRLDRNLWGLAGLNSCPVKEANQSTLENFLERLKTIMREKYSKCSS | -0.08 | Neutral (neutral (little effect) 4.184 kJ/mol < ΔΔG > −4.184 kJ/mol) | –
43 | 1IAR SA16A (protein, UniProt P05112 25-153, looked up, variant S16A) Interleukin-4: HKCDITLQEIIKTLNALTEQKTLCTELTVTDIFAASKNTTEKETFCRAATVLRQFYSHHEKDTRCLGATAQQFHRHKQLIRFLKRLDRNLWGLAGLNSCPVKEANQSTLENFLERLKTIMREKYSKCSS | -0.75 | Neutral (neutral (little effect) 4.184 kJ/mol < ΔΔG > −4.184 kJ/mol) | –
44 | 1REW QC86A (protein, UniProt P36894 24-152, looked up, variant Q86A, extracellular domain) extracellular domain: QNLDSMLHGTGMKSDSDQKKSENGVTLAPEDTLPFLKCYCSGHCPDDAINNTCITNGHCFAIIEEDDQGETTLASGCMKYEGSDFACKDSPKAQLRRTIECCRTNLCNQYLQPTLPPVVIGPFFDGSIR | 11.13 | Positive (positive (a hot residue) ΔΔG ≥ 4.184 kJ/mol) | –
